From patent US20030232862A1 (priority 2002, published 2003)
Like-named read-outs stand apart in the source and are kept apart here. Blank lines part the entries; values can stand above or below the compound they belong to.

Assays:
[1] = system: HT-29 colon adenocarcinoma cells; assay: Apoptosis by DNA fragmentation assay in HT-29 cells; format: cell-based, human; settings: Table 9 qualitative profile; note: key: −: Not active; +: Slightly active; + +: Moderately active; + + +: Strongly active; + + + +: Highly active
HT-29 cells = assay: Growth inhibition of HT-29 cells (SRB assay; trypan blue counting in time course); format: cell-based, human; settings: for Growth Inhibition: Table 9 qualitative profile
[2] = system: premalignant lesions in mouse mammary gland organ culture; assay: Mammary gland organ culture model; for mammary gland organ culture: key: −: Not active; +: Slightly active; + +: Moderately active; + + +: Strongly active; + + + +: Highly active; format: cell-based; settings: for inhibition of formation of premalignant lesions: FIG. 17
Source text: Test compounds identified by the above methods can be tested for antineoplastic activity by their ability to inhibit the incidence of pre-neoplastic lesions in a mammary gland organ culture system. This mouse mammary gland organ culture technique has been successfully used by other investigators to study the effects of known antineoplastic agents such as certain NSAIDs, retinoids, tamoxifen, selenium, and certain natural products, and is useful for validation of the screening method of the present invention.
For example, female BALB/c mice can be treated with a combination of estradiol and progesterone daily, in order to prime the glands to be responsive to hormones in vitro. The animals are sacrificed, and thoracic mammary glands are excised aseptically and incubated for ten days in growth media supplemented with insulin, prolactin, hydrocortisone, and aldosterone. DMBA (7,12-dimethylbenz(a)anthracene) is added to medium to induce the formation of premalignant lesions. Fully developed glands are then deprived of prolactin, hydrocortisone, and aldosterone, resulting in the regression of the glands but not the pre-malignant lesions.
The test compound is dissolved in DMSO and added to the culture media for the duration of the culture period. At the end of the culture period, the glands are fixed in 10% formalin, stained with alum carmine, and mounted on glass slides. The incidence of forming mammary lesions is the ratio of the glands with mammary lesions to […]. The incidence of mammary lesions in test compound treated glands is compared with that of the untreated glands.
The extent of the area occupied by the mammary lesions can be quantitated by projecting an image of the gland onto a digitation pad. The area covered by the gland is traced on the pad and considered as 100% of the area. The space covered by each of the non-regressed structures is also outlined on the digitization pad and quantitated by the computer.
Mammary gland organ culture experiment were performed as previously described (Mehta and Moon, Cancer Research, 46: 5832-5835, 1986).

[3] = biological target: cGMP PDE purified from human colon HT-29 cultured tumor cells (Homo sapiens, UniProt O76074); assay: cGMP PDE inhibition assay; format: biochemical; settings: for PDE Inhibition: Table 9 qualitative profile
[4] = biological target: T1, cGMP binding sites of GST-cGB-PDE5 fusion protein (Homo sapiens, UniProt O76074); assay: cGMP binding assay with GST-cGB-PDE5 fusion protein; settings: for competition with cGMP binding at high concentration: 100 μM, cGMP 2 μM
T1 construct: made in house; host or cells: E. coli BL21 (DE3)

[5] = biological target: T2, PDE Peak A (PDE5) from SW480 cells (Homo sapiens, UniProt O76074); assay: cGMP hydrolysis by PDE Peak A (PDE5) isolated from SW480 cells; format: biochemical
T2 construct: To isolate the novel phosphodiesterase from SW480, approximately four hundred million SW480 cells were grown to confluence; endogenous in cells; host or cells: SW480 colon cancer cells; 105,000 g supernatant, DEAE-Trisacryl M fraction

Cyclooxygenase (COX) = biological target: T3, Cyclooxygenase (COX) (Ovis aries, UniProt P05979); assay: COX inhibition assay, single dose screen (Table 2); format: biochemical; settings: for COX Inhibition: Table 9 qualitative profile
T3 sequence (P05979 25-600): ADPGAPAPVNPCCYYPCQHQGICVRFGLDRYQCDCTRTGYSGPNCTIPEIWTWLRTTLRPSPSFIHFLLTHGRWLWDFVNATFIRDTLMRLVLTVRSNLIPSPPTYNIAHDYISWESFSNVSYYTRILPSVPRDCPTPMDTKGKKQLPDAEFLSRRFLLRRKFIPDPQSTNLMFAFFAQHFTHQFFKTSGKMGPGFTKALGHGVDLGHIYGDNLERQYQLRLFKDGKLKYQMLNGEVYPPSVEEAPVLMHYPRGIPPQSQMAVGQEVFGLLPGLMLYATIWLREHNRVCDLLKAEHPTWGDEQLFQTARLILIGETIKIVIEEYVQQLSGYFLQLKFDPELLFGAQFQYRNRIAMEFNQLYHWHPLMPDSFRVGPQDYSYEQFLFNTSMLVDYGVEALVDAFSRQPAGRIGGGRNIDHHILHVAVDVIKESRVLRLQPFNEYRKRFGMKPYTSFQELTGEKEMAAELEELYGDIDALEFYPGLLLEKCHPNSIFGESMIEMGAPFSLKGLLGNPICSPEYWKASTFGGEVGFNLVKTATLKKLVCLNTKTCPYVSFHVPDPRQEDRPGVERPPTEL

[6] = system: Peak B's (from SW480, HTB-26, and LnCAP); assay: FPLC-isolated Peak B PDE activity from three neoplastic cell lines; format: biochemical
Experimental: The novel Peak B was also isolated from two other neoplastic cell lines, a breast cancer cell line, HTB-26, and a prostate cancer cell line, LnCAP, by a procedure similar to the one above used to isolate it from SW480. The protocol was modified in several respects. To provide even greater reproducibility to allow comparison of different cell lines, a Pharmacia AKTA FPLC was used to control sample loading and elution on an 18 mL DEAE TrisAcryl M column. SW840 was run by this same procedure multiple times to provide a reference of Peak B. 200-400 million cells of SW480 were used for the profiles. 70 million cells of LnCAP were used for a profile (see FIGS. 22 and 23), and in a separate experiment 32 million cells of HTB-26 were used for a profile (see FIGS. 20 and 21). After re-suspending cells in homogenization buffer, samples were manually homogenized. FPLC buffer A was 8 mM TRIS-acetate, 5 mM Mg acetate, 0.1 mM EDTA, pH 7.5 and buffer B was 8 mM TRIS-acetate, 5 mM Mg acetate, 0.1 mM EDTA, 1 M Na acetate, pH 7.5. Supernatants were loaded onto the column at 1 mL per minute, followed by a wash with 60 mL buffer A at 1 mL per minute. A gradient was run from 0-15% buffer B in 60 mL, 15-50% buffer B in 60 mL, and 50-100% buffer B in 16 mL. During the gradient 1.5 mL fractions were collected.

[7] = system: SW-480 colon adenocarcinoma cells; assay: Apoptosis fold induction protocol (DNA fragmentation, Table 4); settings: 100 μM; cell line not given

Compound: ribo-(E)-1-Triazolo-[2′,3′:1″,3″]-1-(butan-1′,4′-olido)-[3′,4′:1,2]-6-fluoro-2-methyl-3-(p-methylsulfonylbenzylidene)-indan [G]
- Apoptosis [1]: + +
- Growth Inhibition (HT-29 cells): + +
- Mammary Gland Organ Culture ([2]; Table 9 qualitative profile): + + +
- PDE Inhibition [3]: −

Compound: O=c1ccn([C@@H]2O[C@@H]3COP(=O)(O)O[C@H]3[C@H]2O)c(=O)[nH]1 [cUMP]
- competition with cGMP in binding of GST-cGB-PDE5 ([4]; 3H-cGMP 2 μM): did not compete

Compound: CCCc1nn(C)c2c(=O)[nH]c(-c3cc(S(=O)(=O)N4CCN(C)CC4)ccc3OCC)nc12 [Sildenafil, reference compound]
- inhibition of activity of Peak A [5]: inhibited activity of Peak A

Compound: Clc1cccc(Nc2nnc(-c3ccccc3)c3ccccc23)c1 [MY5445, 1-(3-chloroanilino)-4-phenyphthalazine, reference compound]
- Apoptosis [1]: + + +
- Growth Inhibition (HT-29 cells): + + +
- % Inhibition at 100 μM (cyclooxygenase) (Cyclooxygenase (COX)): 94%
- COX Inhibition (Cyclooxygenase (COX)): + + +

Compound: O=C([O-])C1CCN(c2nc(NCc3ccc4c(c3)OCO4)c3cc(Cl)ccc3n2)CC1.[Na+] [Example E4021, reference compound]
- sensitivity of Peak B cGMP PDE activity ([6]; 100 nM, 0.25 μM cGMP): resistant
- % Inhibition at 100 μM (growth) (HT-29 cells): <50%

Compound: CC1=C(CC(=O)O)c2cc(F)ccc2/C1=C\c1ccc(Cl)cc1 [Compound C, (Z)-5-Fluoro-2-methyl-1-(p-chlorobenzylidene)-3-acetic acid]
- % Inhibition at 100 μM (growth) (HT-29 cells): 80%
- % Inhibition at 10 μM (cGMP PDE) [3]: <25%

Compound: CCCCOC1C2OP(=O)(O)OCC2OC1n1cnc2c(=O)[nH]c(N)nc21 (centres unmarked) [2′-O-butyl-cGMP]
- competition with cGMP in binding of GST-cGB-PDE5 ([4]; 3H-cGMP 2 μM): did not compete

Compound: CCCCCC[C@@H]([C@@H](C)O)n1cnc2c(N)ncnc21 (racemic) [EHNA]
- Fold induction at 100 μM (apoptosis) [7]: <2.0 fold

Compound: 5-fluoro-2-methyl-1-(p-methylsulfinylbenzylidene)-3-indenylacetic acid [Sulindac sulfide, reference compound]
- Apoptosis [1]: + + +
- competitive (with cGMP) inhibition/binding, Peak A [5]: competitively inhibited
- inhibition of formation of premalignant lesions [2]: inactive
- % Inhibition at 100 μM (cyclooxygenase) (Cyclooxygenase (COX)): 97%
- COX Inhibition (Cyclooxygenase (COX)): + + + +
- % Inhibition at 10 μM (cGMP PDE) [3]: 97%
- PDE Inhibition [3]: + + +
- IC50 ([3]; read-out: IC50 for inhibition of cGMP PDE): 17 µM

Compound: Nc1nc2c(nc(Br)n2[C@@H]2O[C@@H]3COP(=O)(O)O[C@H]3[C@H]2O)c(=O)[nH]1 [Example 8-bromo-cGMP]
- competition with cGMP binding at high concentration [4]: partially compete

Compound: COc1ccc(C2CNC(=O)C2)cc1OC1CCCC1 (centres unmarked) [Rolipram]
- inhibition of cAMP PDE activity in Peak B fractions [6]: inhibited most of the cAMP PDE activity

Compound: CC1=C(CC(=O)O)c2cc(F)ccc2/C1=C\c1ccc([S+](C)[O-])cc1 (centres unmarked) [sulindac, reference compound]
- inhibition of formation of premalignant lesions [2]: effectively inhibit

Compound: Nc1ncnc2c1ncn2[C@@H]1O[C@@H]2COP(=O)(O)O[C@H]2[C@H]1O [Cyclic AMP]
- competition with cGMP in binding of GST-cGB-PDE5 [4]: did not compete

Further lines, with some results ahead:

- competition with cGMP in binding of GST-cGB-PDE5 ([4]; 3H-cGMP 2 μM): did not compete
Compound: Nc1ccn([C@@H]2O[C@@H]3COP(=O)(O)O[C@H]3[C@H]2O)c(=O)n1 [cCMP]

- % Inhibition at 100 μM (cyclooxygenase) (Cyclooxygenase (COX)): <25%
Compound: CC(=O)NC(CSC12CC(=O)OC1(C)/C(=C/c1ccc(S(C)(=O)=O)cc1)c1ccc(F)cc12)C(=O)O (racemic) [D, rac-(E)-1-(butan-1′,4′-olido)-[3′,4′:1,2]-6-fluoro-2-methyl-3-(p-methylsulfonylbenzylidene)-1S-indanyl-N-acetylcysteine]
- % Inhibition at 100 μM (growth) (HT-29 cells): 78%
- Growth Inhibition (HT-29 cells): + +

- PDE Inhibition [3]: −
Compound: CC1=C(CC(=O)N(C2CCCCC2)C2CCCCC2)c2cc(F)ccc2/C1=C\c1ccc(S(C)(=O)=O)cc1 [F, (Z)-5-Fluoro-2-methyl-1-(p-methylsulfonylbenzylidene)-3-indenylacetamide, N,N′-dicyclohexyl]
- Growth Inhibition (HT-29 cells): + +

- competition with cGMP binding at high concentration [4]: partially compete
Compound: O=c1[nH]cnc2c1ncn2[C@@H]1O[C@@H]2COP(=O)(O)O[C@H]2[C@H]1O [Cyclic IMP]

- PDE Inhibition [3]: −
Compound: rac-(E)-1-(butan-1′,4′-olido)-[3′,4′:1,2]-6-fluoro-2-methyl-3-(p-methylsulfonylbenzylidene)-1S-indanyl-glutathione)
- Growth Inhibition (HT-29 cells): + +

- competition with cGMP in binding of GST-cGB-PDE5 ([4]; 3H-cGMP 2 μM): did not compete
Compound: CCCCOC1C2OP(=O)(O)OCC2OC1n1cnc2c(N)ncnc21 (centres unmarked) [2′-O-butyl-cAMP]
